Reference: US10550099B2 (FORMA Therapeutics, Inc., priority 2014, dated 2020)
Like-named read-outs stand apart in the source and are kept apart here.

Legend:
[1] = molecular target: IDH1-R132H recombinant protein (Homo sapiens (Human), UniProt O75874, R132H); test: IDH1-R132H enzymatic assay (diaphorase/resazurin readout of NADPH consumption); type: biochemical; conditions: IDH1-R132H enzyme; read-out: Enzyme IDH1 R132H IC50 (Range)
Experimental: (§1) Assays were performed in a 384-well black plate. An aliquot of 250 nL of compound was incubated with 10 μL of 30 nM IDH1-R132H or 10 nM IDH1-R132C recombinant protein in assay buffer (50 mM Tris pH=7.5, 150 mM NaCl, 5 mM MgCl2, 0.1% (w/v) Bovine Serum Albumin, and 0.01% Triton X-100) in each well at 25° C. for 15 minutes. After the plate was centrifuged briefly, an aliquot of 10 μL of 2 mM α-ketoglutarate and 20 μM NADPH solution prepared in assay buffer was then added to each well and the reaction was maintained at 25° C. for 45 minutes. An aliquot of 10 μL of diaphorase solution (0.15 U/mL diaphorase and 30 μM Resazurin in assay buffer) was added to each well. The plate was maintained at 25° C. for 15 minutes and then read on a plate reader with excitation and emission wavelengths at 535 nm and 590 nm, respectively. The IC50 of a given compound was calculated by fitting the dose response curve of inhibition of NADPH consumption at a given concentration with the four parameter logistic equation.

[2] = test system: HCT116 isogenic IDH1-R132H mutant cells; test: Cellular 2-HG assay using HCT116 mutant IDH1 cells (IDH1-R132H), RapidFire mass spectrometry; type: cell-based
Experimental: (§2) Example 106—Cellular 2-HG Assay Using HCT116 Mutant IDH1 Cells
(§3) HCT116 isogenic IDH1-R132H and IDH1-R132C mutant cells were cultured in growth media (McCoy's 5A, 10% fetal bovine serum, 1× antibiotic-antimycotic solution and 0.3 mg/mL G418) in 5% CO2 in an incubator at 37° C. To prepare the assay, cells were trypsinized and resuspended in assay media (McCoy's 5A with no L-glutamine, 10% fetal bovine serum, 1× antibiotic-antimycotic solution and 0.3 mg/mL G418). An aliquot of 10,000 cells/100 μL was transferred to each well of a clear 96-well tissue culture plate. The cells were incubated in 5% CO2 at 37° C. in an incubator overnight to allow for proper cell attachment. An aliquot of 50 μL of compound containing assay media were then added to each well and the assay plate was kept in 5% CO2 at 37° C. in an incubator for 24 hours. The media was then removed from each well and 150 μL of a methanol/water mixture (80/20 v/v) was added to each well. The plates were kept at −80° C. freezer overnight to allow for complete cell lysis. An aliquot of 125 μL of extracted supernatant was analyzed by RapidFire high-throughout-mass spectrometry (Agilent) to determine the cellular 2-HG level. The IC50 of a given compound was calculated by fitting the dose response curve of cellular 2-HG inhibition at a given concentration with the four parameter logistic equation.

[3] = molecular target: IDH1-R132C recombinant protein (Homo sapiens (Human), UniProt O75874, R132C); test: IDH1-R132C enzymatic assay (diaphorase/resazurin readout of NADPH consumption); type: biochemical; conditions: IDH1-R132C enzyme; read-out: Enzyme IDH1 R132C IC50 (Range)
Experimental: as §1

[4] = test system: HCT116 isogenic IDH1-R132C mutant cells; test: Cellular 2-HG assay using HCT116 mutant IDH1 cells (IDH1-R132C), RapidFire mass spectrometry; type: cell-based
Experimental: as §2, §3

[5] = Homo sapiens, HCT-116, read-out: HCT116 IDH1 R132H IC50 (Range)
[6] = Homo sapiens, HCT-116, read-out: HCT116 IDH1 R132C IC50 (Range)

IDH1-R132C recombinant protein, sequence (O75874 whole entry R132C): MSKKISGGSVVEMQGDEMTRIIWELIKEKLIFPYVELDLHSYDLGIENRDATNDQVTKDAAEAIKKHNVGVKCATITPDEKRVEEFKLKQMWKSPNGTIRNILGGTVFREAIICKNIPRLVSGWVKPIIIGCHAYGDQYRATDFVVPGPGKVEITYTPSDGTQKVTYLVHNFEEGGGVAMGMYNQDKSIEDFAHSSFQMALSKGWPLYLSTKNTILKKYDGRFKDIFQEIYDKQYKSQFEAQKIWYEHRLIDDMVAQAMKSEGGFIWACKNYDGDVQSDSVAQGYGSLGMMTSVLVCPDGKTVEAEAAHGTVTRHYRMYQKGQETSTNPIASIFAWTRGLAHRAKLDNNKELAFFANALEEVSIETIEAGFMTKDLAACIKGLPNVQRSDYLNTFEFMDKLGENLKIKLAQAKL
IDH1-R132H recombinant protein, sequence (O75874 whole entry R132H): as the sequence (O75874 whole entry R132C) above, with C132H counted along it

| Compound | IC50 [1] | IC50 [2, 5] | IC50 [3] | IC50 [4, 6] | IC50 ([2]; read-out: HCT116 IDH1 R132H IC50 (Range)) | IC50 ([4]; read-out: HCT116 IDH1 R132C IC50 (Range)) |
| --- | --- | --- | --- | --- | --- | --- |
| Cc1[nH]ncc1-c1ccnc(N[C@@H](C)c2cc3cc(Cl)ccc3[nH]c2=O)n1 [I-83] | 100 to 1000 nM | 1000 to 10000 nM | 1000 to 10000 nM | 100 to 1000 nM |  |  |
| CC(C)Cn1nccc1-c1ccnc(N[C@@H](C)c2cc3cc(Cl)ccc3[nH]c2=O)n1 [I-85] | 100 to 1000 nM | 100 to 1000 nM | 100 to 1000 nM | 100 to 1000 nM |  |  |
| COC(=O)C(c1ccnc(N[C@@H](C)c2cc3cc(Cl)ccc3[nH]c2=O)n1)S(C)(=O)=O (stereo partly shown) [I-134] |  |  | > 10000 nM |  |  |  |
| COc1nc(N[C@H](C)c2nc3cc(Cl)ccc3[nH]c2=O)ncc1C#N [I-157] | 100 to 1000 nM |  | 1000 to 10000 nM |  | < 100 nM | 100 to 1000 nM |
